Values quoted from earlier work, collected in patent publication US20100202983A1, “SELECTIVELY TARGETED ANTIMICROBIALS FOR THE TREATMENT OF PERIODONTAL DISEASE” (priority 2009, published 2010).

How the values were obtained:
S. mutans [1] = tested on: S. mutans
S. mutans [2] = details: cell culture
[3] = tested on: Porphyromonas gingivalis and Streptococcus mitis; details: Murakami et al., Infect. Immun. 59:3284 (1991)

1903 BD2-21: S. mutans-specific targeting peptide linked via linker peptide to an antimicrobial peptide (NIFEYFLEGGGKLFKFLRKHLL; selectively/specifically targeted antimicrobial peptide (STAMP) chimeric polypeptide 1903-BD2.21)
efficacy for reducing the biofilms formed by S. mutans, and other microbial pathogenic microbes (S. mutans [1]): efficacy has been demonstrated

C16 BD2.21: S. mutans-specific targeting peptide linked via linker peptide to an antimicrobial peptide (TFFRLFNRSFTQALGKGGGKLFKFLRKHLL; selectively/specifically targeted antimicrobial peptide (STAMP) chimeric polypeptide C16-BD2.21)
efficacy for reducing the biofilms formed by S. mutans, and other microbial pathogenic microbes (S. mutans [1]): efficacy has been demonstrated

C16G2: S. mutans-specific targeting peptide linked via linker peptide to an antimicrobial peptide (TFFRLFNRSFTQALGKGGGKNLRIIRKGIHIIKKY; selectively/specifically targeted antimicrobial peptide (STAMP) chimeric polypeptide C16G2)
efficacy for reducing the biofilms formed by S. mutans, and other microbial pathogenic microbes (S. mutans [1]): efficacy has been demonstrated

FBRW-15: antimicrobial peptide useful in the present invention (IKQLLHFFQRFGGGRWRWRWF; FBRW-15)
efficacy for reducing the colony forming units of S. mutans (S. mutans [2]): efficacy has been demonstrated

FBRW-16: antimicrobial peptide useful in the present invention (LKRFLKWFKRFGGGRWRWRWF; FBRW-16)
efficacy for reducing the colony forming units of S. mutans (S. mutans [2]): efficacy has been demonstrated

FBRW-22: antimicrobial peptide useful in the present invention (RWRWRWFGGGFKKFWKWFRRF; FBRW-22)
efficacy for reducing the colony forming units of S. mutans (S. mutans [2]): efficacy has been demonstrated

FBRW-24: antimicrobial peptide useful in the present invention (RWRWRWFGGGLKRFLKWFKRF; FBRW-24)
efficacy for reducing the colony forming units of S. mutans (S. mutans [2]): efficacy has been demonstrated

FBα-20: antimicrobial peptide useful in the present invention (RWRRLLKKLHHLLHGGGFKKFWKWFRRF; FBalpha-20)
efficacy for reducing the colony forming units of S. mutans (S. mutans [2]): efficacy has been demonstrated

FBα-21: antimicrobial peptide useful in the present invention (RWRRLLKKLHHLLHGGGIKQLLHFFQRF; FBalpha-21)
efficacy for reducing the colony forming units of S. mutans (S. mutans [2]): efficacy has been demonstrated

Histatin 5: 24-residue peptide from human saliva with antifungal properties (DSHAKRHHGYKRKFHEKHHSHRGY; histatin 5 peptide)
inhibition of coaggregation between Porphyromonas gingivalis and Streptococcus mitis [3]: inhibits coaggregation

M8-33: S. mutans-specific targeting peptide linked via linker peptide to an antimicrobial peptide (TFFRLFNRSGGGFKKFWKWFRRF; selectively/specifically targeted antimicrobial peptide (STAMP) chimeric polypeptide M8-33)
efficacy for reducing the biofilms formed by S. mutans, and other microbial pathogenic microbes (S. mutans [1]): efficacy has been demonstrated

M8G2: S. mutans-specific targeting peptide linked via linker peptide to an antimicrobial peptide (TFFRLFNRGGGKNLRIIRKGIHIIKKY; selectively/specifically targeted antimicrobial peptide (STAMP) chimeric polypeptide M8G2)
efficacy for reducing the biofilms formed by S. mutans, and other microbial pathogenic microbes (S. mutans [1]): efficacy has been demonstrated
